Test results reported in PubChem BioAssay (NCI).
Where “and” joins values, the source holds several entries; their conditions need not be identical. Equal values may be shown once.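 1) Cells in 96-well plates. 2) Compound, 48 h, 5 concentrations. 3) Linear interpolation between surrounding doses. 4) Unreached endpoint = highest concentration. GI50 = concentration required for 50% inhibition of growth. TGI denotes the concentration required for complete inhibition of growth.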

Experiments:
Experiment in all cases: NCI tumour cell line growth inhibition, 48 h
UO-31 renal = test system: UO-31 renal
OVCAR-8 ovarian = test system: OVCAR-8 ovarian
OVCAR-4 ovarian = test system: OVCAR-4 ovarian
SK-MEL-28 melanoma = test system: SK-MEL-28 melanoma
786-0 renal = test system: 786-0 renal
MALME-3M melanoma = test system: MALME-3M melanoma
SNB-19 CNS = test system: SNB-19 CNS
SK-MEL-5 melanoma = test system: SK-MEL-5 melanoma
OVCAR-5 ovarian = test system: OVCAR-5 ovarian
SK-OV-3 ovarian = test system: SK-OV-3 ovarian

Row | Structure (SMILES) | TGI (UO-31 renal) | TGI (OVCAR-8 ovarian) | TGI (OVCAR-4 ovarian) | TGI (SK-MEL-28 melanoma) | TGI (786-0 renal) | TGI (MALME-3M melanoma) | TGI (SNB-19 CNS) | TGI (SK-MEL-5 melanoma) | TGI (OVCAR-5 ovarian) | TGI (SK-OV-3 ovarian) | GI50 (UO-31 renal) | GI50 (OVCAR-8 ovarian) | GI50 (SK-MEL-5 melanoma) | GI50 (786-0 renal) | GI50 (OVCAR-5 ovarian) | GI50 (SK-MEL-28 melanoma) | GI50 (SK-OV-3 ovarian) | GI50 (MALME-3M melanoma) | GI50 (SNB-19 CNS) | GI50 (OVCAR-4 ovarian)
1 | O=c1c2ccccc2[nH]c(=S)n1-c1ccc(Br)cc1 | > 100 µM | > 100 µM | > 100 µM | > 100 µM | > 100 µM | > 100 µM | > 100 µM | – | – | – | – | – | – | – | – | – | – | – | – | –
2 | Cn1c2c(c3ccccc31)CCN(CCCCN1CCc3c(n(C)c4ccccc34)C1=O)C2 | > 100 µM | > 100 µM | > 100 µM | > 100 µM | > 100 µM | > 100 µM | > 100 µM | > 100 µM | > 100 µM | > 100 µM | – | – | – | – | – | – | – | – | – | –
3 | Cc1cc(C)nc(NS(=O)(=O)c2ccc(Nc3c4ccccc4nc4c(C(=O)Nc5ccc(S(=O)(=O)N=C(N)N)cc5)ccc(Cl)c34)cc2)n1 | 73.9 µM | 33.4 µM | 75.4 µM | – | > 100 µM | > 100 µM | 46.7 µM | > 100 µM | > 100 µM | 51 µM | – | – | – | – | – | – | – | – | – | –
4 | O=P(O)(CCP(=O)(O)c1ccccc1)c1ccccc1 | > 100 µM | > 100 µM | > 100 µM | > 100 µM | > 100 µM | > 100 µM | > 100 µM | > 100 µM | > 100 µM | > 100 µM | – | – | – | – | – | – | – | – | – | –
5 | O=C(Oc1ccc(Cl)cc1Cl)c1ccccc1Nc1ccnc(C(F)(F)F)c1 | > 100 µM | 30.8 µM | – | – | 5.87 µM | – | – | 10.5 µM | 22 µM | – | 18.1 µM | 4.79 µM | 2.85 µM | 1.93 µM | 7.9 µM | – | – | – | – | –
6 | O=[N+]([O-])c1ccc(C(c2c[nH]c3ccccc23)c2c[nH]c3ccccc23)cc1 | 22.9 µM | 33.2 µM | 28.2 µM | 36.1 µM | 35.2 µM | 37.6 µM | 35.8 µM | 20.2 µM | 54.4 µM | 33.1 µM | – | – | – | – | – | – | – | – | – | –
7 | O=C(c1ccccc1)C(c1ccccc1)C1(O)C(=O)Nc2c(Cl)cc(Cl)cc21 (stereo not drawn) | 38.4 µM | 32.9 µM | 28 µM | 34.1 µM | 29.8 µM | 32.7 µM | 55.3 µM | 30.7 µM | 33.2 µM | 70.1 µM | – | – | – | – | – | – | – | – | – | –
8 | COc1cc(C2CC(c3ccc(C)cc3)=NN2C=O)ccc1Oc1ccnc2cc(Cl)ccc12 (stereo not drawn) | > 50 µM | – | – | > 50 µM | 19.6 µM | > 50 µM | > 50 µM | > 50 µM | > 50 µM | > 50 µM | > 50 µM | – | > 50 µM | 5.07 µM | > 50 µM | > 50 µM | 7.2 µM | > 50 µM | 9.53 µM | –
9 | O=C(CN1CCN(c2ncccn2)CC1)Nc1ccc(Cl)cc1C(=O)c1ccccc1Cl | > 100 µM | > 100 µM | > 100 µM | > 100 µM | > 100 µM | > 100 µM | > 100 µM | > 100 µM | > 100 µM | > 100 µM | > 100 µM | > 100 µM | 52.4 µM | 62 µM | > 100 µM | > 100 µM | > 100 µM | > 100 µM | > 100 µM | 43.9 µM
10 | N#Cc1c(-c2nc3ccccc3s2)c(=O)oc2cc(O)ccc12 | 74.9 µM | > 100 µM | > 100 µM | > 100 µM | > 100 µM | 95.9 µM | > 100 µM | 69.8 µM | > 100 µM | – | – | – | – | – | – | – | – | – | – | –
11 | CC(=O)n1c(COS(C)(=O)=O)nc2ccccc21 | > 100 µM | > 100 µM | > 100 µM | > 100 µM | > 100 µM | > 100 µM | > 100 µM | > 100 µM | > 100 µM | – | – | – | – | – | – | – | – | – | – | –
12 | CN1CC[C@@H](c2c(O)cc(O)c3c(=O)cc(-c4ccccc4Cl)oc23)[C@@H](O)C1 | 0.876 µM and 0.164 µM and 1.18 µM | – | 0.68 µM and 3.61 µM | 0.294 µM and 1.45 µM | 17.9 µM | 0.439 µM and 0.465 µM | > 37.3 µM | 0.265 µM and 0.182 µM | – | > 100 µM | 0.0713 µM and 0.0363 µM and 0.0238 µM | – | 0.0631 µM | 0.108 µM | 0.0801 µM and 0.146 µM | 0.101 µM and 0.0902 µM | 0.201 µM and 0.428 µM | 0.166 µM and 0.144 µM | 0.103 µM | 0.17 µM
13 | COc1ccc(-c2nc3sc(C)cn3c2/C=C/C(=O)c2cc(OC)c(OC)c(OC)c2)cc1 | 7.61 µM | 8.57 µM | > 100 µM | – | > 100 µM | – | > 100 µM | 2.91 µM | > 100 µM | > 100 µM | 2.27 µM | 3.23 µM | 1.51 µM | 5.31 µM | > 100 µM | – | 4.19 µM | – | 4.55 µM | 3.15 µM
14 | Cc1ccc(OCC(=O)N2N=C(c3ccccc3)CC2(O)c2ccccc2)cc1 (stereo not drawn) | > 100 µM | > 100 µM | 71.6 µM | > 100 µM | 30 µM | > 100 µM | > 100 µM | – | 32.7 µM | > 100 µM | – | – | – | – | – | – | – | – | – | –
15 | O=C(c1ccccc1)C(C(=O)c1ccccc1)C1(O)C(=O)c2ccccc2C1=O | > 100 µM | > 100 µM | – | > 100 µM | > 100 µM | 96.6 µM | > 100 µM | – | > 100 µM | > 100 µM | – | – | – | – | – | – | – | – | – | –
16 | O=C1C(=O)N(C(=O)c2ccc(Cl)c(Cl)c2)c2ccccc21 | > 100 µM | > 100 µM | > 100 µM | > 100 µM | > 100 µM | – | > 100 µM | > 100 µM | > 100 µM | > 100 µM | – | – | – | – | – | – | – | – | – | –
17 | COC1=CC(=O)c2ccccc2C1(CCC=C(C)C)C1=NC(C)(C)CO1 (stereo not drawn) | > 100 µM | > 100 µM | > 100 µM | > 100 µM | > 100 µM | > 100 µM | > 100 µM | > 100 µM | – | > 100 µM | – | – | – | – | – | – | – | – | – | –
18 | Cc1ccc(-[n+]2c3cc(N)c(C)cc3nc3cc(C)c(Nc4ccccc4)cc32)cc1 | 1.03 µM | > 100 µM | 1.59 µM | 1.33 µM | 0.644 µM | – | – | 0.289 µM | 1.48 µM | 1.62 µM | 0.27 µM | 0.103 µM | 0.147 µM | 0.2 µM | 0.357 µM | 0.266 µM | 0.258 µM | – | – | 0.333 µM
19 | O=C(O)c1c(-c2cccc3ccccc23)sc(-c2cccc3ccccc23)c1C(=O)O | > 100 µM | > 100 µM | – | > 100 µM | > 100 µM | > 100 µM | > 100 µM | > 100 µM | > 100 µM | > 100 µM | – | – | – | – | – | – | – | – | – | –
